Assay [1] deals with dopamine D2 receptor. Particulars: rimcazole, cited; value for [3H] spiperone binding; cited from earlier work.
Assay [2] deals with sigma receptor. Particulars: rimcazole, cited from European Journal of Pharmacology, 155, 345 (1988); cited from earlier work.
In assay [3] the test system is (+)-SKF 10047-induced stereotypical behavior. Kind of assay: Test on action on (+)-SKF 10047-induced abnormal (stereotypical) behaviors. Format: in vivo, mouse (male ICR). The conditions noted are these: Mus musculus; oral, 30 min (35 min for drug C) before 30 mg/kg i.p. (+)-SKF 10047; scores over 40 min; read-out: ED25 (stereotypical behavior suppression). The method, then: TEST EXAMPLE 2 Test on Action on (+)-[…] Abnormal Behaviors! Male ICR mice (Nippon Charles River) aged 4 to 5 weeks were divided into groups each having 10 animals and used. Each animal was separately fed in a small transparent cage and fully familiarized with its environment. To the animals, test drugs […] % gum arabic at various concentrations were orally administered. […] Since 10 minutes thereafter, stereotypical behavior scores were measured for 40 minutes at intervals of 5 minutes. (Test drug) (Stereotypical behavior score) 0: normal behaviors 1: sniffing, standing up 2: discontinuous movement, sniffing stronger than 1 3: circling, moving backward 4: continuous circling 5: bending and stretching of limbs, head and neck The stereotypical behavior suppression ratio was determined on the basis of the sum of the scores of the test groups measured 8 times within 40 minutes by referring the sum of the score of a solvent (distilled water for injection) administered-group measured 8 times within 40 minutes as to 100%. Each ED25 value was calculated by determining the slope of a line of the suppression ratio formed by the method of least squares.

The test system of the next assay is dopamine autoreceptor. The conditions noted are these: reported in literature, cited from earlier work.
Assay [4] concerns the target sigma receptor (Rattus norvegicus, UniProt Q9R0C9). Put plainly: biochemical. The class given is binding, rat (male Wistar). Particulars: for IC50: 2 nM [3H](+)-3-PPP, rat whole brain membrane, pH 8.0, 21° C., 90 min; for inhibition at 1 µM: pH 8, read-out: Sigma receptor Inhibition % (1 μM). The method, then: (§1) Male Wistar rats were employed as test animals.
(§2) Radiolabeled ^3 H! […] (-)-sulpiride was used as a compound specifically binding to dopamine D2 receptor.
(§3) Reactions of these ^3 H! compounds binding to the corresponding receptors were performed respectively in accordance with the following methods (1) and (2) described in Molecular Pharmacology, 32, 772 (1987), Journal of Pharmacy and Pharmacology, 32, 441 (1980) and Molecular Pharmacology, 32, 820 (1987).
(§4) After the completion of each reaction, the reaction mixture was filtered with suction into a glass filter (GF/B) and the radioactivity of the filter paper was measured with a liquid scintillation spectrometer.
(§5) (-)-sulpiride, and the difference between the total binding (the value measured by adding no test drug) and the nonspecific binding was referred to as the specific binding.
(§6) By reacting the ^3 H! compound at a definite concentration (2 nM) with the test drugs at various concentrations under the conditions as specified in the above (1) and (2), inhibition curves were obtained. On the basis of these inhibition curves, the concentration of each test drug causing 50% inhibition of the specific binding (IC50) was determined.

In assay [5] the target is dopamine D2 receptor (Rattus norvegicus, UniProt P61169). Put plainly: biochemical. Format: binding, rat (male Wistar). The conditions noted are these: for IC50: 2 nM [3H](-)-sulpiride, rat striata membrane, pH 7.7, 37° C., 10 min; for inhibition at 1 µM: pH 7.7, read-out: Dopamine D2 receptor Inhibition % (1 μM). The method, then: as §1, §2, §3
(2) ^3 H! (-)-sulpiride binding:
(-)-sulpiride and a test drug were incubated in 1 ml of a 50 mM Tris-HCl buffer solution (pH 7.7) at 37° C. for 10 minutes.
as §4, §5, §6

These results are taken from patent US5502202A, “Aminoalkylthiazole derivative” (Taisho Pharmaceutical Co., Ltd., priority 1991, dated 1996).

Structures can show the parent of a compound that is named as a salt.

Chain of dopamine D2 receptor (Rattus norvegicus, UniProt P61169) (P61169 whole entry): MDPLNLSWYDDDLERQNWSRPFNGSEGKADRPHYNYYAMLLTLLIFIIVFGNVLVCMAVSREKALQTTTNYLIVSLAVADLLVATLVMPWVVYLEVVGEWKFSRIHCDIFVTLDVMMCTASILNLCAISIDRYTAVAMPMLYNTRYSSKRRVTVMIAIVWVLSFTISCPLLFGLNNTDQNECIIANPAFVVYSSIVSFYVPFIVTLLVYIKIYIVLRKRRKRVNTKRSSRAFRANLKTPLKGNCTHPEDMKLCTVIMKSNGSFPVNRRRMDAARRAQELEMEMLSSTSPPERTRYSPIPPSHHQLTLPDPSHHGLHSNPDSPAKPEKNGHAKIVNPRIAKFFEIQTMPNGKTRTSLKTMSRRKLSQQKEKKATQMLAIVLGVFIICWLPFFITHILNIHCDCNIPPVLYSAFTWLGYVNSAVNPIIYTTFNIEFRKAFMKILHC
Chain of sigma receptor (Rattus norvegicus, UniProt Q9R0C9) (Q9R0C9 whole entry): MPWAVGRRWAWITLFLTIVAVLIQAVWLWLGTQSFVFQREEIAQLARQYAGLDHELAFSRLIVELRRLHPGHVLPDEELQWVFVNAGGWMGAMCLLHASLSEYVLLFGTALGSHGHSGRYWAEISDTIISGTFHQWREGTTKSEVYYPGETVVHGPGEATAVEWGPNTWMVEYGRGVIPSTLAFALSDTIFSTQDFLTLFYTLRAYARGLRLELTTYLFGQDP

In general, IC50 refers to the concentration needed to halve the response being measured. As to `C[C@@H]1CN(CCCn2c3ccccc3c3ccccc32)C[C@H](C)N1` [Rimcazole], the IC50 at dopamine D2 receptor [1] was 86000 nM; at sigma receptor [2], 1460 nM. The ED25 in assay [3] was 37.9 mg/kg.
Take `C=CCN1CCc2nc(N)sc2CC1` [talipexole]: the “effect on dopamine nerve system (in words)” value in the assay with dopamine autoreceptor (by stimulating the presynaptic autoreceptor) was “suppresses nerve ignition and biosynthesis and liberation of dopamine”. Further, in the assay on dopamine autoreceptor, the “selective dopamine autoreceptor agonism (in words)” value is “selective dopamine autoreceptor agonist”.
What is called inhibition is the relative decrease from the control value, in per cent. Regarding `CCCCCN(CCCCC)CCc1sc(N)nc1-c1ccc(Br)cc1` [Test Drug A (Table 1), 2Amino-4-(4-bromophenyl)-5-(2-di-n-pentylaminoethyl)-thiazole dihydrochloride], at sigma receptor [4], the IC50 was determined as 8.7 nM and the inhibition at 1 µM turned out to be 93.1%.
Turning to `CCCCCCCCN(CCCCCCCC)CCc1sc(N)nc1-c1ccc(Br)cc1` [Test Drug C (Table 1), 2Amino-4-(4-bromophenyl)-5-(2-di-n-octylaminoethyl)-thiazole dihydrochloride], the IC50 was over 1000 nM at dopamine D2 receptor [5] and 3.2 nM at sigma receptor [4]. Further, the inhibition at 1 µM on dopamine D2 receptor [5] was -31%; at sigma receptor [4], 99.7%.
Turning to `CCCCCCN(CCCCCC)CCc1sc(N)nc1-c1ccc(Br)cc1.Cl.Cl` [Test Drug B (Table 1), 2-Amino-4-(4-bromophenyl)-5-(2-di-n-hexylaminoethyl)thiazole dihydrochloride], at dopamine D2 receptor [5], the IC50 is over 1000 nM and the inhibition at 1 µM is -33.3%. Besides, at sigma receptor [4], inhibition was half-maximal at 1.6 nM (IC50) and the inhibition at 1 µM was 100%. In addition, in assay [3], the ED25 came to 0.019 mg/kg.
For the compound `OC(CCCN1CCN(c2ncc(F)cn2)CC1)c1ccc(F)cc1` (stereo not drawn) [BMY 14802], the ED25 in assay [3] is 7.6 mg/kg.
Regarding `CCCN1CCCC(c2cccc(O)c2)C1` (single isomer, unassigned) [3-PPP, 3-(3-hydroxyphenyl)-N-n-propylpiperidine, reference compound], on sigma receptor [4], it took 24.3 nM to reach half-maximal inhibition (IC50).
